Data taken from US20230151003A1, “COMPOUNDS AND METHODS OF USE” (Exelixis, Inc., priority 2020, published 2023).

What was measured:
AXL = biological target: T1, AXL (Homo sapiens, UniProt P30530); assay: AXL autophosphorylation ELISA in A-172 cells; format: cell-based; details: Table 3 Cellular Activities, Gas6-stimulated, phospho-AXL ELISA
T1 construct: endogenous in cells; host or cells: A-172 glioblastoma cells (ATCC #CRL-1620)
T1 sequence (P30530 26-894): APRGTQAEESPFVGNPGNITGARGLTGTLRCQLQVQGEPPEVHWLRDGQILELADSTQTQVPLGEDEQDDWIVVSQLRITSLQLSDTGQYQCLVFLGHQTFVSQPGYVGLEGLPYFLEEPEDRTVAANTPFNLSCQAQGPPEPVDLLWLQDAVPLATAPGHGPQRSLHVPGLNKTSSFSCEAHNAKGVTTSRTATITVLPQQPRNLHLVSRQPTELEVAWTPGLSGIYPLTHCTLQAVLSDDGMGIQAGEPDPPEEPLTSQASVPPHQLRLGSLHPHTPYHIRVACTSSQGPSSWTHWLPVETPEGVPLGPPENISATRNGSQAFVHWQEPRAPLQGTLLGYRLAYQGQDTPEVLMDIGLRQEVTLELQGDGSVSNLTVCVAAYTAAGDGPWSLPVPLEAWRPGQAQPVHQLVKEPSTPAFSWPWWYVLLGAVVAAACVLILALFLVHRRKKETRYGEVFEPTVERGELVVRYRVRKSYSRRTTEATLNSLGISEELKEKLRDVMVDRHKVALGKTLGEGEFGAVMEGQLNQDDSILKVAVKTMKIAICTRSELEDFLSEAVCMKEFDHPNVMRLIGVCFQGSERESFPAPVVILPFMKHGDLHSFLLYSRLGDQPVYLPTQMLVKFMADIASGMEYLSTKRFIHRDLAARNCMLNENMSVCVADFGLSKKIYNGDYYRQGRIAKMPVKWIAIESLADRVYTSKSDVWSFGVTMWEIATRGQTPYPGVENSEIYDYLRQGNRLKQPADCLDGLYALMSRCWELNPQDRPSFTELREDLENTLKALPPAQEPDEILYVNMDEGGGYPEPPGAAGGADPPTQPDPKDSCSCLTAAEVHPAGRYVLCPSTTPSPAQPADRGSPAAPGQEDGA
How it was run: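 Phospho-AXL in lysates measured by ELISA after Gas6 stimulation (1 μg/mL, 15 min) of A-172 cells pre-incubated 1 h with an 8-point compound dilution series in 0.3% DMSO after 24 h serum starvation. IC50 by 4-parameter logistic fit, with DMSO-treated and reference-inhibitor wells as 100% and 0% activity.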

KDR = KDR (Homo sapiens, UniProt P35968); assay: KDR autophosphorylation ELISA in HUVEC cells; format: cell-based; set-up: endogenous in cells; host or cells: HUVEC (Lonza #C2519A); details: Table 3 Cellular Activities, VEGF165-stimulated, phospho-KDR ELISA
Chain of KDR (P35968 20-1356): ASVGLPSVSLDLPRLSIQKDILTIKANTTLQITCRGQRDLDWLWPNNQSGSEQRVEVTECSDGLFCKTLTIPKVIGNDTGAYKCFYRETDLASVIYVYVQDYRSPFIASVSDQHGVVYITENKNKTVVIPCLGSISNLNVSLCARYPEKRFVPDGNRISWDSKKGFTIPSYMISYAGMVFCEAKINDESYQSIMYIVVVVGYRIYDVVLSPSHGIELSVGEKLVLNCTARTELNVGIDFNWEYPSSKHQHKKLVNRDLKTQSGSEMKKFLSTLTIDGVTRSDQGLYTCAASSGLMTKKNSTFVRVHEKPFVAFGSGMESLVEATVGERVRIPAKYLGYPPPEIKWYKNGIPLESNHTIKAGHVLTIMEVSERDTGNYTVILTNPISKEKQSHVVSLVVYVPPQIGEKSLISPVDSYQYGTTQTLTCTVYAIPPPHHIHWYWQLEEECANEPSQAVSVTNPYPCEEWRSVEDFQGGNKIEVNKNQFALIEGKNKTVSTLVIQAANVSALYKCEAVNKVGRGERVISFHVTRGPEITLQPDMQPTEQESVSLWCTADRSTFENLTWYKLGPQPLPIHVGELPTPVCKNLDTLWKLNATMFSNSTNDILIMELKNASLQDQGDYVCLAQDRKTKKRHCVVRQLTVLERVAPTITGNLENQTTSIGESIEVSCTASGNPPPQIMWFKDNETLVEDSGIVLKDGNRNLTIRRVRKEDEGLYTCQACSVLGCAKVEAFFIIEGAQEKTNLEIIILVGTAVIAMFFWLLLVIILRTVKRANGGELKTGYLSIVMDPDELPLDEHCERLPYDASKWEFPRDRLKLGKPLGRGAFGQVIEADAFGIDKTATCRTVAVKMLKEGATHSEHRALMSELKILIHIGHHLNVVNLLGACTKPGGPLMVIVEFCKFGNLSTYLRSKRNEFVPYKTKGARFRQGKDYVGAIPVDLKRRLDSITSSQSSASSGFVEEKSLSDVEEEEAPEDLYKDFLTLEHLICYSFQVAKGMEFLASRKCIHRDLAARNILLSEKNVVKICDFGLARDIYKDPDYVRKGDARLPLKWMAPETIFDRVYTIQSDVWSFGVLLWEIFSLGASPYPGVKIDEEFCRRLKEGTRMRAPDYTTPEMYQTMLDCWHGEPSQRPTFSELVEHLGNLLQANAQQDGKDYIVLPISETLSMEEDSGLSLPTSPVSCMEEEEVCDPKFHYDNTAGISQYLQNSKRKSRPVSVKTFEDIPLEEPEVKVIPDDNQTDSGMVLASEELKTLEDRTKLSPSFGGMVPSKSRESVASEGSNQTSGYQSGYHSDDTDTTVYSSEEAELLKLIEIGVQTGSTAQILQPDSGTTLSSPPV
How it was run: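 Compound pretreatment (1 h, 0.3% DMSO) of serum-starved HUVEC preceded a 5 min pulse of 100 ng/mL VEGF165, after which cells were lysed. Phospho-KDR was quantified by ELISA relative to stimulated and unstimulated controls.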

| SMILES | IC50 (AXL) [nM] | IC50 (KDR) [nM] |
| --- | --- | --- |
| COc1cc2nccc(Oc3ccc(NC(=O)c4c(C)nc(C)c(-c5cc(C)nn5C)c4O)cc3F)c2nc1OC [Compound 109, N-[4-[(6,7-Dimethoxy-1,5-naphthyridin-4-yl)oxy]-3-fluoro-phenyl]-5-(2,5-dimethylpyrazol-3-yl)-4-hydroxy-2,6-dimethyl-pyridine-3-carboxamide] | ≤ 100 | ≤ 100 |
| COc1ccc2nccc(Oc3ccc(NC(=O)c4cnc(C)c(-c5ccco5)c4O)cc3F)c2n1 [Compound 118, N-[3-Fluoro-4-[(6-methoxy-1,5-naphthyridin-4-yl)oxy]phenyl]-5-(furan-2-yl)-4-hydroxy-6-methylpyridine-3-carboxamide] | ≤ 100 | ≤ 100 |
| COc1cnc2c(Oc3ccc(NC(=O)c4cnc(C)c(-c5ccco5)c4O)cc3)ccnc2c1 [Compound 129, 5-(Furan-2-yl)-4-hydroxy-N-[4-[(7-methoxy-1,5-naphthyridin-4-yl)oxy]phenyl]-6-methylpyridine-3-carboxamide] | ≤ 100 | ≤ 100 |
| COc1cc2nccc(Oc3ccc(NC(=O)c4c(C)nc(C)c(-c5ccco5)c4O)cc3F)c2nc1OC [Compound 135, N-[4-[(6,7-Dimethoxy-1,5-naphthyridin-4-yl)oxy]-3-fluorophenyl]-5-(furan-2-yl)-4-hydroxy-2,6-dimethylpyridine-3-carboxamide] | ≤ 100 | ≤ 100 |
| COc1cc2nccc(Oc3ccc(NC(=O)c4cnc(C)c(-c5ccc(C)o5)c4O)cc3F)c2nc1OC [Compound 92, N-[4-[(6,7-Dimethoxy-1,5-naphthyridin-4-yl)oxy]-3-fluoro-phenyl]-4-hydroxy-6-methyl-5-(5-methyl-2-furyl)pyridine-3-carboxamide] | ≤ 100 | ≤ 100 |
| COc1cc2nccc(Oc3ccc(NC(=O)c4cnc(C)c(-c5nccs5)c4O)cc3F)c2nc1OC [Compound 143, N-[4-[(6,7-Dimethoxy-1,5-naphthyridin-4-yl)oxy]-3-fluorophenyl]-4-hydroxy-6-methyl-5-(1,3-thiazol-2-yl)pyridine-3-carboxamide] | ≤ 100 | ≤ 100 |
| COc1cc2nccc(Oc3ccc(NC(=O)c4c(C)ncc(-c5ccc(C)o5)c4O)cc3F)c2nc1OC [Compound 120, N-[4-[(6,7-Dimethoxy-1,5-naphthyridin-4-yl)oxy]-3-fluorophenyl]-4-hydroxy-2-methyl-5-(5-methylfuran-2-yl)pyridine-3-carboxamide] | ≤ 100 | ≤ 100 |
| COc1cnc2c(Oc3ccc(NC(=O)c4cn(CCF)c(C)c(-c5cccs5)c4=O)cc3F)ccnc2c1 [Compound 331, 1-(2-Fluoroethyl)-N-[3-fluoro-4-[(7-methoxy-1,5-naphthyridin-4-yl)oxy]phenyl]-6-methyl-4-oxo-5-thiophen-2-ylpyridine-3-carboxamide] | ≤ 100 | 300 to 1000 |
| COc1cc2nccc(Oc3ccc(NC(=O)c4c(C)n(C)c(C)c(-c5cccs5)c4=O)cc3F)c2nc1OC [Compound 168, N-[4-[(6,7-Dimethoxy-1,5-naphthyridin-4-yl)oxy]-3-fluorophenyl]-1,2,6-trimethyl-4-oxo-5-thiophen-2-ylpyridine-3-carboxamide] | ≤ 100 | ≤ 100 |
| COc1cc2nccc(Oc3ccc(NC(=O)c4c(C)ncc(-c5cc(C)cs5)c4O)cc3F)c2nc1OC [Compound 125, N-[4-[(6,7-Dimethoxy-1,5-naphthyridin-4-yl)oxy]-3-fluorophenyl]-4-hydroxy-2-methyl-5-(4-methylthiophen-2-yl)pyridine-3-carboxamide] | ≤ 100 | ≤ 100 |
| COc1cc2nccc(Oc3ccc(NC(=O)c4c(C)ncc(-c5ccco5)c4O)cc3F)c2nc1OC [Compound 119, N-[4-[(6,7-Dimethoxy-1,5-naphthyridin-4-yl)oxy]-3-fluorophenyl]-5-(furan-2-yl)-4-hydroxy-2-methylpyridine-3-carboxamide] | ≤ 100 | ≤ 100 |
| COc1cc2nccc(Oc3ccc(NC(=O)c4cnc(C)c(-c5sccc5C)c4O)cc3F)c2nc1OC [Compound 103, N-[4-[(6,7-Dimethoxy-1,5-naphthyridin-4-yl)oxy]-3-fluoro-phenyl]-4-hydroxy-6-methyl-5-(3-methyl-2-thienyl) pyridine-3-carboxamide] | ≤ 100 | ≤ 100 |
| COc1cc2nccc(Oc3ccc(NC(=O)c4cnc(C)c(-c5cc(C(F)(F)F)nn5C)c4O)cc3F)c2nc1OC [Compound 105] | ≤ 100 | ≤ 100 |
| COc1cnc2c(Oc3ccc(NC(=O)c4cn(CCF)c(C)c(-c5ccc(C)s5)c4=O)cc3F)ccnc2c1 [Compound 329, 1-(2-Fluoroethyl)-N-[3-fluoro-4-[(7-methoxy-1,5-naphthyridin-4-yl)oxy]phenyl]-6-methyl-5-(5-methylthiophen-2-yl)-4-oxopyridine-3-carboxamide] | ≤ 100 | 300 to 1000 |
| COc1nc2c(Oc3ccc(NC(=O)c4c(C)n(C)c(C)c(-c5ccco5)c4=O)cc3F)ccnc2cc1OCCC1CCC1 [Compound 337, N-[4-[[7-(2-Cyclobutylethoxy)-6-methoxy-1,5-naphthyridin-4-yl]oxy]-3-fluorophenyl]-5-(furan-2-yl)-1,2,6-trimethyl-4-oxopyridine-3-carboxamide] | ≤ 100 | ≤ 100 |
| COc1cc2nccc(Oc3ccc(NC(=O)c4c(C)nc(C)c(-c5ccc(C6CC6)o5)c4O)cc3F)c2nc1OC [Compound 155B, 5-(5-Cyclopropylfuran-2-yl)-N-[4-[(6,7-dimethoxy-1,5-naphthyridin-4-yl)oxy]-3-fluorophenyl]-4-hydroxy-2,6-dimethylpyridine-3-carboxamide] | ≤ 100 | ≤ 100 |
| COCc1nc(C)c(-c2ccc(C)o2)c(O)c1C(=O)Nc1ccc(Oc2ccnc3cc(OC)c(OC)nc23)c(F)c1 [Compound 117, N-[4-[(6,7-Dimethoxy-1,5-naphthyridin-4-yl)oxy]-3-fluorophenyl]-4-hydroxy-2-(methoxymethyl)-6-methyl-5-(5-methylfuran-2-yl)pyridine-3-carboxamide] | ≤ 100 | ≤ 100 |
| COc1cc2nccc(Oc3ccc(NC(=O)c4c(C)nc(C)c(-c5ccc(C)s5)c4O)cc3F)c2nc1OC [Compound 111, N-[4-[(6,7-Dimethoxy-1,5-naphthyridin-4-yl)oxy]-3-fluoro-phenyl]-4-hydroxy-2,6-dimethyl-5-(5-methyl-2-thienyl)pyridine-3-carboxamide] | ≤ 100 | ≤ 100 |
| COc1cnc2c(Oc3ccc(NC(=O)c4cnc(C)c(-c5ccoc5)c4O)cc3F)ccnc2c1 [Compound 99, N-[3-Fluoro-4-[(7-methoxy-1,5-naphthyridin-4-yl)oxy]phenyl]-5-(3-furyl)-4-hydroxy-6-methyl-pyridine-3-carboxamide] | ≤ 100 | ≤ 100 |
| COc1cc2nccc(Oc3ccc(NC(=O)c4cnc(C)c(-c5ccnn5C)c4O)cc3F)c2nc1OC [Compound 104] | ≤ 100 | ≤ 100 |
| COc1cc2nccc(Oc3ccc(NC(=O)c4cnc(C)c(-c5ccsc5)c4O)cc3F)c2nc1OC [Compound 93, N-[4-[(6,7-Dimethoxy-1,5-naphthyridin-4-yl)oxy]-3-fluoro-phenyl]-4-hydroxy-6-methyl-5-(3-thienyl)pyridine-3-carboxamide] | ≤ 100 | ≤ 100 |
| COc1cc2nccc(Oc3ccc(NC(=O)c4cn(CCF)c(C)c(-c5ccsc5)c4=O)cc3F)c2nc1OC [Compound 332, N-[4-[(6,7-Dimethoxy-1,5-naphthyridin-4-yl)oxy]-3-fluorophenyl]-1-(2-fluoroethyl)-6-methyl-4-oxo-5-thiophen-3-ylpyridine-3-carboxamide] | ≤ 100 | ≤ 100 |
| COc1cnc2c(Oc3ccc(NC(=O)c4c(C)n(C)c(C)c(-c5cccs5)c4=O)cc3)ccnc2c1 [Compound 165, N-[4-[(7-Methoxy-1,5-naphthyridin-4-yl)oxy]phenyl]-1,2,6-trimethyl-4-oxo-5-thiophen-2-ylpyridine-3-carboxamide] | ≤ 100 | 300 to 1000 |
